Tested on: oral mucositis
Experiment: Treatment of oral mucositis in cancer subjects (case examples 2-6)
Assay type: in vivo, human
Conditions: grade IV mucositis, listed agents used with cryotherapy
Experimental: The efficacy and safety of the compositions comprising the disclosed acidic extract of myrrh resin were clinically assessed for prevention, treatment and/or improvement of oral and gastrointestinal mucositis.
In place of prophylactic incubation, the subject began using the composition comprising the disclosed acidic extract of myrrh resin in the form of gel four times a day.
(§1) The subject began using the composition comprising the disclosed acidic extract of myrrh resin in the form of gel four times a day.
G: oral examination performed on the second day of treatment. H: oral examination performed on the third day of treatment. I: oral examination performed on the fourth day of treatment.
as §1
D, E and F: oral examination performed on the first day of treatment. G, H, I and J: oral examination performed on the third day of treatment. K, L and M: oral examination performed on the fifth day of treatment.
B: oral examination performed on the first day of treatment. C: oral examination performed on the second day of treatment. D: oral examination performed on the third day of treatment. E: oral examination performed on the fourth day of treatment.

[1] = Example 2: Hodgkin's Lymphoma, high dose chemotherapy
[2] = Example 4: pancreatic adenocarcinoma, chemotherapy
[3] = Example 5: Larynx CA, induction chemotherapy
[4] = Example 6: larynx malignant neoplasma, radiation therapy

SMILES | effect of earlier treatment of the oral lesions [1] | effect of earlier treatment of the oral lesions [2] | effect of earlier treatment of the oral lesions [3] | effect of earlier treatment of the oral lesions [4]
N=C(NCCCCCCNC(=N)NC(=N)Nc1ccc(Cl)cc1)NC(=N)Nc1ccc(Cl)cc1.O=C(O)[C@H](O)[C@@H](O)[C@H](O)[C@H](O)CO.O=C(O)[C@H](O)[C@@H](O)[C@H](O)[C@H](O)CO [chlorhexidine gluconate] | not effective | mild decrease in mucositis | mild decrease in mucositis | not effective
O=C([O-])O.[Na+] [sodium bicarbonate] | not effective | mild decrease in mucositis | mild decrease in mucositis | not effective
